Structures can show the parent of a compound that is named as a salt.
These compounds were tested on 2-phenyl-1,4-benzoquinone-induced writhing in mice (assay: 2-phenyl-1,4-benzoquinone-induced writhing test in mice (PQW Activity), analgesia). Conditions: 33 mg/kg, s.c. (reference compound).
Assay type: in vivo
Method: Exptl. […] The tests were conducted at the subcutaneous dose of 20 mg/kg.

Row | Structure (SMILES) | PQW Activity, % Inhibition [%]
1 | CC(=O)Oc1ccccc1C(=O)O [Aspirin, reference compound] | 50

Same assay, conditions: subcutaneous, 20 mg/kg

Row | Structure (SMILES) | PQW Activity, % Inhibition [%]
2 | CN(C)CCn1cc2c(n1)-c1c(nc3ccccc3c1N)CC2 [11-Amino-4,5-dihydro-2-(2-dimethylaminoethyl)-2H-pyrazolo [3,4-a]acridine] | 59
3 | Nc1c2c(nc3ccccc13)CCc1cnn(-c3ccccc3)c1-2 [11-Amino-4,5-dihydro-1-phenyl-1H-pyrazolo[3,4-a]acridine] | 48
4 | Nc1c2c(nc3ccccc13)CCc1cn(CC(=O)O)nc1-2 [11-Amino-4,5-dihydro-2H-pyrazolo[3,4-a]acridine-2-acetic acid hydrochloride hemihydrate] | 58
5 | Cn1cc2c(n1)-c1c(nc3ccccc3c1N)CC2 [11-Amino-4,5-dihydro-2-methyl-2H-pyrazolo[3,4-a]acridine] | 54
6 | N#CCn1cc2c(n1)-c1c(nc3ccccc3c1N)CC2 [11-Amino-4,5-dihydro-2H-pyrazolo[3,4-a]acridine-2-acetonitrile] | 47
7 | CCn1cc2c(n1)-c1c(nc3ccccc3c1N)CC2 [11-Amino-4,5-dihydro-2-ethyl-2H-pyrazolo[3,4-a]acridine] | 67

Reference: patent publication US5179100A, “4,5-dihydropyrazolo[3,4-a]acridines” (Hoechst-Roussel Pharmaceuticals inc., priority 1992, dated 1993)
